Experimental data from patent US10220033B2, “Substituted benzoxazepine for cancer therapy” (University of Cape Town, priority 2014, dated 2019).
Like-named read-outs stand apart in the source and are kept apart here.

Key:
[1] = test system: CaSki cervical cancer cell line; experiment: MTT assay for cell viability, IC50 determination; format: cell-based; conditions: Homo sapiens, Ca-Ski, read-out: IC50
Experimental: (§1) Cells were plated in 96-well plates and treated with varying concentrations of a test compound for 48 hours, after which MTT dye, 3-(4,5-dimethylthiazol-2-yl)-2,5-diphenyltetrazolium bromide (Sigma), was added, and crystals solubilised 4 hours later using Solubilisation Reagent (10% SLS in 0.01 M HCl). Absorbencies were measured at 595 nm the following day using a BioTek microplate spectrophotometer (Winooski, Vt., USA) and IC50 curves were generated using GraphPad Prism.

[2] = test system: FG0 normal skin fibroblasts (non-cancer); experiment: MTT assay for cell viability, IC50 determination; format: cell-based; conditions: Skin fibroblast, 48 hours
Experimental: as §1

[3] = test system: HeLa cervical cancer cell line; experiment: MTT assay for cell viability, IC50 determination; format: cell-based; conditions: Homo sapiens, HeLa, HeLa, read-out: IC50
Experimental: as §1

cancer cell lines = experiment: MTT cell viability, summary statements over panels of cancer cell lines; format: cell-based; conditions: CaSki and HeLa (Tables 2 and 3); read-out: IC50 values (cancer cell-killing effects)
Experimental: as §1

[4] = test system: p65 nuclear import (Kpnβ1 cargo protein); experiment: Percentage of nuclear and cytoplasmic p65 (FIG. 4); format: cell-based
[5] = test system: PARP cleavage in CaSki cells; experiment: PARP cleavage analysis by Western Blot; format: cell-based; conditions: IC50 and twice the IC50 (FIG. 5), varying concentrations 12 hours (FIG. 26)
Experimental: CaSki cells were treated with varying concentrations of Compound A for 12 hours, following which cells and cell floaters were harvested using RIPA buffer (10 mM Tris-Cl, pH 7.4, 150 mM NaCl, 1% sodium deoxycholate, 0.1% SDS, 1% Triton X-100, 1× complete protease inhibitor cocktail (Roche, Mannheim, Germany)) and Western Blot analysis performed, using a rabbit anti-Parp1/2 (H-250) antibody (sc-7150).

[6] = test system: NFAT transcriptional activity in NFAT-transfected HeLa cells; experiment: NFAT luciferase reporter assay; format: cell-based; conditions: stimulated with TPA and ionomycin (FIGS. 16-20)
Experimental: To assay for NFAT luciferase activity, 30 000 HeLa cells were plated per well in 24-well plates, and transfected with 50 ng GFP-NFAT plasmid (Addgene plasmid #24219, gift of Jerry Crabtree (Beals C R, Clipstone N A, Ho S N, Crabtree G R. Nuclear localization of NF-ATc by a calcineurin-dependent, cyclosporin-sensitive intramolecular interaction. Genes Dev 1997 Apr. 1; 11(7):824-34)), 50 ng NFAT-luciferase (Addgene plasmid #10959, gift of Toren Finkel (Ichida M, Finkel T. Ras regulates NFAT3 activity in cardiac myocytes. J Biol Chem 2001 Feb. 2; 276(5):3524-30)), and 5 ng pRL-TK, using 0.4 μl Genecellin™ Transfection Reagent (Celtic Molecular Diagnostics, South Africa). The NFAT-luciferase reporter plasmid contains three tandem repeats of a 30 bp fragment of the IL-2 promoter known to bind NFAT. The following day cells were treated with 10 or 15 μM Compound A and after an overnight incubation, stimulated with 100 nM TPA (Sigma) and 1.3 μM Ionomycin (Santa Cruz Biotechnology, Santa Cruz, Calif., USA) for 5 hours, following which luciferase activity was measured.
An assay for nuclear NFAT following ionomycin and Compound A treatment was carried out, using an NFAT-luciferase reporter that is activated by nuclear NFAT. The phorbol ester TPA was used to co-stimulate NFAT, as it has been shown previously that TPA and ionomycin elicit synergistic stimulation of NFAT luciferase activity (Northrop J P, Ullman K S, Crabtree G R. Characterization of the nuclear and cytoplasmic components of the lymphoid-specific nuclear factor of activated T cells (NF-AT) complex. J Biol Chem 1993 Feb. 5; 268(4):2917-23).

[7] = test system: HeLa cancer cells and FG0 non-cancer cells; experiment: Cell proliferation monitored using the MTT assay (FIGS. 6 and 7); format: cell-based; conditions: increasing concentrations; HeLa and FG0 (FIGS. 6 and 7)
[8] = test system: WHCO5 oesophageal cancer cell line; experiment: MTT assay for cell viability, IC50 determination; format: cell-based, human; conditions: Homo sapiens, compound in salt form
Experimental: as §1

[9] = MTT assay for cell viability, IC50 determination; format: cell-based; conditions: Homo sapiens, MCF-12A; MCF12A; compound in salt form
Experimental: as §1

[10] = test system: DMB normal skin fibroblasts (non-cancer); experiment: MTT assay for cell viability, IC50 determination; format: cell-based; conditions: Skin fibroblast; DMB; compound in salt form
Experimental: as §1

[11] = test system: EPC2 (EPC2-hTERT normal immortalised oesophageal epithelial cells); experiment: MTT assay for cell viability, IC50 determination; format: cell-based; conditions: Homo sapiens, compound in salt form
Experimental: as §1

[12] = test system: KYSE150 oesophageal cancer cell line; experiment: MTT assay for cell viability, IC50 determination; format: cell-based; conditions: Homo sapiens, KYSE-150; Kyse150; compound in salt form
Experimental: as §1

[13] = test system: MCF7 breast cancer cell line; experiment: MTT assay for cell viability, IC50 determination; format: cell-based; conditions: Homo sapiens, compound in salt form
Experimental: as §1

[14] = test system: MDA-MB-231 breast cancer cell line; experiment: MTT assay for cell viability, IC50 determination; format: cell-based; conditions: Homo sapiens, compound in salt form
Experimental: as §1

[15] = test system: SVWI38 transformed cell line; experiment: MTT assay for cell viability, IC50 determination; format: cell-based; conditions: SVWI38; compound in salt form
Experimental: as §1

[16] = test system: WI38 non-cancer cell line; experiment: MTT assay for cell viability, IC50 determination; format: cell-based; conditions: Homo sapiens, WI-38; WI38; compound in salt form
Experimental: as §1

Compound | IC50 ([1]; 48 h, MTT) [µM] | IC50 [2] [µM] | IC50 ([3]; 48 h, 48 hours, MTT) [µM] | IC50 (cancer cell lines) [µM] | nuclear import of Kpnβ1 cargo protein (percentage of nuclear p65 relative to cytoplasmic p65) [4] | PARP cleavage as an indicator of apoptosis [5] | NFAT activation (NFAT-luciferase reporter) [6] | cell proliferation [7] | IC50 [8] [µM] | IC50 [9] [µM] | IC50 ([1]; compound in salt form) [µM] | IC50 [10] [µM] | IC50 [11] [µM] | IC50 ([3]; compound in salt form) [µM] | IC50 [12] [µM] | IC50 [13] [µM] | IC50 [14] [µM] | IC50 [15] [µM] | IC50 [16] [µM]
Cc1cccc(CN2CCOc3c(cc(-c4ccc(C)s4)cc3OCC3CCCN(C)C3)C2)n1 (stereo not shown) [Compound II, 9-[(1-methylpiperidin-3-yl)methoxy]-4-[(6-methylpyridin-2-yl)methyl]-7-(5-methylthiophen-2-yl)-3,5-dihydro-2H-1,4-benzoxazepine] | 11.4 | 17.2 | 14.4 | < 50 | inhibit the nuclear import of Kpnβ1 cargo protein | induce cancer cell death via apoptosis | significantly diminished NFAT activation | inhibit cell proliferation |  |  |  |  |  |  |  |  |  |  | 
CNC(=O)[C@@H]1C[C@H](NCc2ccc(OC)c3ccccc23)CN1Cc1ccccc1 [Compound III, (2S,4S)-1-benzyl-4-{[(4-methoxynaphthalen-1-yl)methyl]amino}-N-methylpyrrolidine-2-carboxamide] | 34.1 | 44.9 | 19.9 | < 50 | inhibit the nuclear import of Kpnβ1 cargo protein | induce cancer cell death via apoptosis | significantly diminished NFAT activation | inhibit cell proliferation |  |  |  |  |  |  |  |  |  |  | 
CC(C)Cc1ccc(CNCc2cccnc2N2CCCN(C)CC2)s1 [Compound XII, 1-(5-isobutyl-2-thienyl)-N-[[2-(4-methyl-1,4-diazepan-1-yl)-3-pyridyl]methyl]methanamine] | 27.4 |  |  |  |  |  |  |  | 20.3 | 34.1 | 27.4 | 57 | 41.6 | 23.1 | 25.5 | 44.9 | 30 | 31.3 | 33.8
Cc1ccc(OC[C@@H](O)CNCc2ccc3c(c2)OCO3)cc1C [Compound XIII, 1-(benzo[1,3]dioxol-5-ylmethylamino)-3-(3,4-dimethylphenoxy)-propan-2-ol] | 39.5 |  |  |  |  |  |  |  | 40.1 | 49.3 | 39.5 | 93 | 34.6 | 53.6 | 98.4 | 44.5 | 33 | 42.1 | 36.2
